We go through 5 molecules from US7148243B2, “Antivirals” (Medivir AB, priority 1998, dated 2006).

Data set [1] is described as follows: Release of mother compound from orally administered prodrug, plasma level (Biological Example 4). In kind it is in vivo, Sprague Dawley rats. The following applies: oral Example 7 0.027 mmol/kg in propylene glycol, released Example 6 assayed. How it is done:
The release of a compound of Formula I from an orally administered prodrug of Formula II was monitored in rats. The compound of Example 7 was made up in a propylene glycol vehicle and orally administered to paired fasted male Sprague Dawley rats at a dose corresponding to 0.027 mmol/kg. At the indicated time intervals, 0.2 ml blood was collected from a catheter implanted in the […] jugularis, centrifuged and frozen for later analysis. The released drug of Formula I (Example 6) was assayed by HPLC.

A short description of data set [2]: Bioavailability in different species, plasma level of mother compound (Biological Example 7). It is filed as in vivo, cynomolgus monkeys. Conditions: monkey, Example 12 0.026 mmol/kg, acacia/Tween. How it is done: Monkeys were fasted for 12 hours prior to oral administration but had free access to water. The test compound was delivered via an infant nasogastric feeding tube. After 6 hours the monkeys received an apple.
(§1) A prodrug of the invention of Formula II (Example 12) was administered at the same dose (0.026 mmol/kg) and in the same vehicle (10% acacia and 1% Tween in water) to rats and cynomolgus monkeys. Plasma levels of the mother compound of Formula I (Example 10) was measured as a function of time.

Assay in data set [3]: as above
It is filed as in vivo. Conditions: rat, Example 12 0.026 mmol/kg, acacia/Tween. As for the experimental part: Each substance was administered to duplicate rats.
as §1
The corresponding data for the compound of Example 28 (rat: acacia/Tween, monkey:propylene glycol) are shown in Table 5A: […]

For data set [4] the following is noted: for plasma level of mother compound: 0.027 mmol/kg.
Description: The rats used in pharmacokinetic examples were male Sprague-Dawley, with a weight about 200–250 g. The rats were fasted for at least 16 hours before the experiment, but had free access to water. The day before the experiment the rats were anaesthetized using a mixture of Efrane®, laughing gas and oxygen. A catheter was introduced into the vena jugularis. On the day of the experiment the weights of the rats were noted. The animals were shortly anaesthesized before the oral dose was given or the iv dose injected into the back of the neck. Each substance was administered to duplicate rats.
Compounds were dissolved in DMSO for intravenous administration.
The blood samples were centrifuged infectious agents neutralised with 1% SDS/64°/20 min and plasma stored at −20° C.
Plasma samples are prepared as follows: 40–100 μl of plasma is mixed with an equal volume of acetonitrile (10 seconds, Vibrofex). The sample is centrifuged (2 min, 14000 RPM) and 30 μl of the supernantant is injected into an HPLC system, as follows.
The vehicle was 10% acacia and 1% Tween in water or propylene glycol (asterisked).
The target in data set [5] is T1, HIV reverse transcriptase (Human immunodeficiency virus type 1 group M subtype B, UniProt P04585).
T1 construct: made in house
In words: Binding kinetics by surface plasmon resonance (Biological Example 10). The following applies: dissociation phase, 25° C., FIG. 3, versus prior art Santa Fe compound. From the text:
The rate of association and dissociation of an NNRTI on the target enzyme can be directly assayed by surface plasmon resonance methodology, wherein reverse transcriptase is immobilized on the surface of a chip and the binding or dissociation of the putative inhibitor is monitored by observing the changes in refractive index caused by the concomitant increase or decrease in chip mass. A compound of the invention (Example 8) was compared to the closest prior art compound from Santa Fe, as depicted above. Experiments were performed on a BIACORE® 2000 (Biacore AB, Uppsala, Sweden), using BIAEVALUATION® software (ver 3.0) for evaluation of data. The binding of the small analyte (NNRTI) to the much larger enzyme results in binding responses in the range of 10–20 RU. […] During the dissociation phase there is insignificant change in bulk refractive index, thus the binding of the different substances have been evaluated during this phase. […]
Interaction with inhibitors: Stock solutions of inhibitors (1 mg/ml in DMSO) were dissolved in RT running buffer (10 mM Hepes pH 7.6; 4 mM MgCl2; 0.25 mM spermine; 40 mM KCl; 0.5% TRITON® X-100; 3% DMSO; 0.5% fetal calf serum) to a concentration of […]. Binding of substance to the RT was analysed by injection of […] of the diluted substance, the flow rate was […] and the temperature 25° C. […]
In general terms: In SPR one partner is held on a chip, and binding of the other changes the refractive index at the surface.

A further data set has as its system HIV-1 IIIB. In words: Time to resistance, weekly passage in MT4 cells (Biological Example 2). In kind it is cell-based. The following applies: growth of viral resistance against time, FIG. 1, versus closest Santa Fe compound. How it is done: 2×10^4 MT4 cells per well in a microtitre plate are infected with 5–10 TCID50 of HIV-1 IIIB. The compounds being tested are added at concentrations around ED50 using 8 duplicates per concentration. After 6 days of incubation the RT activity in 10 μl supernatent is measured.
The following procedure is followed at subsequent passages of the cultures once per week.: Virus produced at the concentration of test compound showing >50% of the RT activity of untreated infected cells (SIC, Starting Inhibitory Concentration) are passaged to fresh MT4 cells. 15 μl supernatent from each of the eight duplicates are transferred to cells without the test compound (control) and to cells with test compound at the same concentration, and additionally two respectively fivefold higher concentrations. (See Table 2 below)
When viral growth is permitted at the highest non-toxic concentration (5–40 μM), 2–4 parallel wells are collected and expanded to give material for sequence analysis and cross-wise resistance.
FIG. 1 plots the growth of viral resistance for a compound of the invention (Example 8) against time. Also plotted is the corresponding curve for the closest Santa Fe compound, mentioned above.

In another data set the test system is HIV. The following applies: after only four weeks of therapy, virus isolated from patient serum; cited from earlier work.

Where “and” joins values, the source holds several entries; their conditions need not be identical. Identical values can stand only once. Like-named read-outs stand apart in the source and are kept apart here.

As to `CCC(=O)c1ccc(F)c([C@H]2C[C@H]2NC(=O)Nc2ccc(C#N)cn2)c1OC(=O)c1cccc(N)c1` (relative stereo) [Example 7, (1R, 2R)-N-[cis-2-(2-(3-aminophenylcarbonyloxy)-6-fluoro-3-propionylphenyl)-cyclopropyl]-N′-(5-cyanopyrid-2-yl)-urea], the “plasma level of mother compound” value in data set [1] (30 min, individual rats) was 240 ng/mL and 350 ng/mL; in data set [1] (60 min) it was 180 ng/mL and 280 ng/mL; in data set [1] (120 min) it was 130 ng/mL and 170 ng/mL; in data set [1] (240 min), 70 ng/mL and 120 ng/mL; in data set [1] (360 min) it was 50 ng/mL and 70 ng/mL.

On to `CCC(=O)c1ccc(F)c([C@@H]2C[C@@H]2NC(=O)Nc2ccc(Br)cn2)c1OC(=O)c1cccc(N)c1` (relative stereo) [Example 12, (1S, 2S)-N-[cis-2-(2-(3-aminophenylcarbonyloxy)-6-fluoro-3-propionylphenyl)cyclopropyl]-N′-(5-bromopyrid-2-yl)-urea], for which the “plasma level of mother compound” value in data set [2] (45 min, mother compound Example 10) is 80 ng/mL and 40 ng/mL; in data set [2] (90 min), 200 ng/mL and 260 ng/mL; in data set [2] (180 min) it was 1000 ng/mL and 550 ng/mL; in data set [2] (240 min), 720 ng/mL and 540 ng/mL; in data set [2] (360 min) it was 380 ng/mL and 390 ng/mL; in data set [2] (600 min) it was 130 ng/mL and 100 ng/mL. In addition, the “plasma level of mother compound” value was 30 ng/mL in data set [2] (24 h); 90 ng/mL and 50 ng/mL in data set [3] (30 min, mother compound Example 10); 100 ng/mL and 70 ng/mL in data set [3] (60 min); 90 ng/mL and 80 ng/mL in data set [3] (120 min); 80 ng/mL in data set [3] (180 min); 60 ng/mL and 50 ng/mL in data set [3] (240 min).

As to `CCC(=O)c1ccc(F)c([C@@H]2C[C@@H]2NC(=O)Nc2ccc(C#N)cn2)c1OCOC(=O)c1ccc(O)cc1` (relative stereo) [Example 37, (1S, 2S)-N-[cis-2-(6-fluoro-2-O-3-propionylphenyl)-cyclopropyl]-N′-[2-(5-cyanopyridyl)]urea-O-methylene-4-hydroxybenzoate], the “plasma level of mother compound” value in data set [4] (propylene glycol (asterisked), 30 min) was 234 ng/mL and 137 ng/mL; in data set [4] (propylene glycol, 60 min), 273 ng/mL and 189 ng/mL; in data set [4] (propylene glycol, 120 min), 111 ng/mL and 133 ng/mL; in data set [4] (propylene glycol, 240 min) it was 56 ng/mL and 45 ng/mL; in data set [4] (propylene glycol, 360 min), 54 ng/mL and 56 ng/mL. In addition, the absolute oral bioavailability in data set [4] (determined relative to the iv dose, rats) is reported as 28–33%.

As to `CCC(=O)c1ccc(F)c([C@@H]2C[C@@H]2NC(=O)Nc2ccc(C#N)cn2)c1O` (stereo in doubt) [Example 8, (1 S,2S)-N-(cis-2-(6-fluoro-2-hydroxy-3-propionoylphenyl)-cyclopropyl)-N′-(5-cyanopyrid-2-yl)-urea], in data set [5], the “dissociation rate from reverse transcriptase” value is given as “dissociating with the lowest rate”. In addition, the “rate of resistance development” value in the data set with HIV-1 IIIB is on record as “significantly slower rate of resistance development”.

`Cc1ccnc2c1NC(=O)c1cccnc1N2C1CC1` [nevirapine]: the “loss of sensitivity of patient virus to the drug versus virus from untreated patients” value in the data set with HIV is given as 100 fold.
